{"source": "patent US20250339409A1", "about": "“USES OF PAN BET INHIBITORS” (VYNE THERAPEUTICS INC., priority 2021, published 2025)", "key": {"[1]": {"system": "reconstituted human epidermis stimulated with TNF-α and IFN-γ", "assay": "Reconstituted human epidermis (RHE) vitiligo model: morphological analysis after H/E staining", "format": "cell-based", "settings": "topical on RHE, 48 h", "description": "To generate the morphological and functional aspects of vitiligo, in vitro reconstituted epidermis with Normal Human Epidermal Keratinocytes (NHEK) and Normal Human Epidermal Melanocytes, darkly pigmented (NHEM-DP) are exposed to a cytokine cocktail (TNF-α and IFN-γ). The cytokine cocktail is applied during 48 hours in the culture medium of epidermis. NHEK are isolated from the fore skin of 3 Caucasian donors, and NHEM-DP are isolated from 1 donor. The tissues are cultured at the air-liquid interface in Epilife medium (Fisher Scientific, M-EPI-500-A) containing supplements and antibiotics (Gentamycin, Fisher Scientific, 15710-049). […] Three epidermis samples per condition are fixed in 4% formaldehyde solution and embedded in paraffin for further analysis (morphology analysis, melanin and melanocytes localisation/quantification). […] The tissue morphology is analyzed through a Hematoxylin/Eosin (H/E) staining. […] Formulations containing four doses of BETi1, the BETi1 vehicle (placebo) and JAK inhibitor, were evaluated in RHE TNF-α/IFN-γ vitiligo model as described in Experimental section Methods C and D and representative images of H/E stained epidermis sections are shown in FIG. 4A-H. Treatments of the RHEs with each of the formulations were initiated at day 9 of their reconstitution process. […]"}, "[2]": {"system": "back skin of healthy mice", "assay": "Tolerance assessment of BETi1 0.01% and 1.0% in healthy (non-induced) mice", "format": "in vivo", "settings": "for Modified PASI Mean score values / PASI Mean score values: female, Balb/c", "description": "Thirty-six (36) female Balb/c mice are weighed and randomly divided into 9 groups (n=4) according to body weight on D1. For mice of native group 1 and tolerance groups 8 and 9, no induction of psoriasis is performed between D1 and D13. Psoriasis is induced in groups 2 to 7 by once daily topical application for 13 days (from day 1 to day 13) of 65 mg of Aldara™ cream (5.0% imiquimod) onto the shaved and epilated back of mice. Before the first treatment, a second randomization of mice of the 6 imiquimod-induced psoriasis groups is performed according to the severity of psoriasis (PASI), and also the body weight of mice. Starting on day 7 and until day 13, 100 mg of test formulations […] and 65 mg of vehicle (groups 1 and […]) are topically administered once daily for 7 consecutive days onto the shaved back skin of mice. Several measurements are taken during treatment period from day 7 to day 14: psoriasis index (PASI), body weight, use of enrichment and mortality. At the end of treatment period, TEWL is assessed, and blood and skin samples are collected. Histological analysis of skin samples is used for microscopic scoring of psoriasis and the determination of the thickness of parakeratosis and epidermis and blood analysis is used for assessing the level of proinflammatory biomarkers (cytokines assays). The effect of treatment of psoriasis induced mice with BETi formulations at the four dose levels are compared with Dermoval® cream containing 0.05% clobetasol propionate (reference) and vehicle (positive control) and also with healthy mice treated with vehicle (negative control).\nThe tolerance assessment to treatments with 0.01% and 1.0% BETi is performed daily during the treatment period (D7 to D13) as well as on the day mice are sacrifice (D14), and takes into account the following 5 parameters:\nThe presence of erythema on the skin with the following scoring grid: • 0=no or no more erythema on the skin, • 1=weak erythema on the skin, • 2=moderate erythema on the skin, • 3=important erythema on the skin, • 4=severe erythema on the skin.\nThe presence of induration of the skin with the following scoring grid: • 0=no or no more induration of the skin, • 1=weak induration of the skin, • 2=moderate induration of the skin, • 3=important induration of the skin, • 4=severe induration of the skin.\nThe presence of ulceration of the skin with the following scoring grid: • 0=no or no more ulceration of the skin, • 1=weak ulceration of the skin, • 2=moderate ulceration of the skin, • 3=important ulceration of the skin, • 4=severe ulceration of the skin.\nThe presence of necrosis of the skin with the following scoring grid: • 0=no or no more necrosis of the skin, • 1=weak necrosis of the skin, • 2=moderate necrosis of the skin, • 3=important necrosis of the skin, • 4=severe necrosis of the skin.\nThe presence of peeling of the skin with the following scoring grid: • 0=no or no more peeling of the skin, • 1=weak peeling of the skin, • 2=moderate peeling of the skin, • 3=important peeling of the skin, • 4=severe peeling of the skin.\nThe investigation addressed, amongst other things, the effect of the different BETi1 concentrations (0.001%, 0.01%, 0.1% and 1.0%) on various parameters. Tolerance was tested at two BETi1 concentrations (0.01% and 1%) in healthy mice."}}, "data": [{"smiles": "Cn1cc(-c2cccc(O)c2Oc2ccccc2)c2cc[nH]c2c1=O", "note": "[BETi1]", "values": [{"measurement": "morphological alteration of RHE (H/E staining)", "setting": "[1]", "value": "did not induce any morphological alteration"}, {"measurement": "Body weight, individual mouse", "setting": "[2]; Tolerance, healthy mice, D 1, listed as BETi1 1.0%", "value": 18.49}, {"measurement": "Mean body weights", "setting": "[2]; Tolerance, healthy mice, D 11, listed as BETi1 1.0%", "value": 18.97}, {"measurement": "Body weight, individual mouse", "setting": "[2]; Tolerance, healthy mice, D 14, listed as BETi1 1.0%", "value": 19.58}, {"measurement": "Modified PASI Mean score values", "setting": "[2]; mouse, in vivo", "value": 0.00}, {"measurement": "Modified PASI Mean score values", "setting": "[2]; mouse, in vivo, 1 study day", "value": 0.00}, {"measurement": "PASI Mean score values", "setting": "[2]; mouse, in vivo, 2 study day", "value": 0.00}, {"measurement": "PASI Mean score values", "setting": "[2]; mouse, in vivo, 3 study day", "value": 0.00}, {"measurement": "PASI Mean score values", "setting": "[2]; mouse, in vivo, 4 study day", "value": 0.00}, {"measurement": "PASI Mean score values", "setting": "[2]; mouse, in vivo, 5 study day", "value": 0.00}, {"measurement": "PASI Mean score values", "setting": "[2]; mouse, in vivo, 6 study day", "value": 0.00}, {"measurement": "PASI Mean score values", "setting": "[2]; mouse, in vivo, 7 study day", "value": 0.00}, {"measurement": "PASI Mean score values", "setting": "[2]; mouse, in vivo, 8 study day", "value": 0.00}, {"measurement": "Modified PASI Mean score values", "setting": "[2]; mouse, in vivo, 9 study day", "value": 0.00}, {"measurement": "PASI Mean score values", "setting": "[2]; mouse, in vivo, 9 study day", "value": 0.00}, {"measurement": "Modified PASI Mean score values", "setting": "[2]; mouse, in vivo, 10 study day", "value": 0.00}, {"measurement": "PASI Mean score values", "setting": "[2]; mouse, in vivo, 10 study day", "value": 0.00}, {"measurement": "Modified PASI Mean score values", "setting": "[2]; mouse, in vivo, 11 study day", "value": 0.00}, {"measurement": "PASI Mean score values", "setting": "[2]; mouse, in vivo, 11 study day", "value": 0.00}, {"measurement": "Modified PASI Mean score values", "setting": "[2]; mouse, in vivo, 12 study day", "value": 0.00}, {"measurement": "PASI Mean score values", "setting": "[2]; mouse, in vivo, 12 study day", "value": 0.00}, {"measurement": "Modified PASI Mean score values", "setting": "[2]; mouse, in vivo, 13 study day", "value": 0.00}, {"measurement": "PASI Mean score values", "setting": "[2]; mouse, in vivo, 13 study day", "value": 0.00}, {"measurement": "Modified PASI Mean score values", "setting": "[2]; mouse, in vivo, 14 study day", "value": 0.00}, {"measurement": "PASI Mean score values", "setting": "[2]; mouse, in vivo, 14 study day", "value": 0.00}, {"measurement": "local skin reaction to treatment", "setting": "[2]; mouse, in vivo", "value": "did not experience any noticeable local skin reaction"}]}]}
